The record followed here is patent US10195204B2, “Methods of treating hemoglobinopathies” (DUKE UNIVERSITY, priority 2011, dated 2019).

Entries after “also recorded” stand apart in the source; their conditions may differ. Where two headings read alike, the source gives them in different places.

The subject of experiment [1] is cAMP production in SS RBCs. As for the experimental part:
Whole cell cAMP accumulation was assayed to assess the functional capacity of the RBC β2-ARs to stimulate the production of cAMP. Washed packed RBCs were pre-treated with IBMX to define basal cAMP accumulation, followed by treatment with epinephrine for 1 min or 30 min, or forskolin. Samples were placed on ice, stimulation was halted, and cells fixed by the addition of 12.5 mM EDTA. Cell samples were boiled, clarified by centrifugation and assayed for cAMP content by radioimmunoassay as described previously.^22 Basal cAMP production was subtracted from the total cAMP produced by the cells. The amounts of cAMP were then normalized as fmol cAMP/10^8 RBCs.

The next experiment has as its system ERK1/2. Particulars: ERK1/2 from epinephrine-treated SS RBCs, n=4.
The subject of experiment [2] is SS RBC adhesion to TNF-α-activated HUVECs. Briefly: Flow chamber adhesion of SS RBCs to TNF-α-activated HUVECs. The format is cell-based, human. As for the experimental part:
Cells were then washed three times with 5 ml PBS with Ca^2+ and Mg^2+. Prior to adhesion assays, washed treated SS RBCs were labeled with PKH 26 red fluorescent cell linker kit (Sigma-Aldrich, St. Louis, Mo.), following the manufacturer's instructions.
Graduated height flow chambers were used to quantify adhesion of RBCs to HUVECs substantially as previously described in detail.^4, 20 In some adhesion studies, slides coated with HUVECs were treated with human recombinant TNF-α at 10 ng/ml for 4 hours. Slides coated with HUVECs treated or not with TNF-α were then washed three times with 20 ml HBSS with 1.26 mM Ca^2+, 0.9 mM Mg^2+ (Gibco, Grand Island, N.Y.) warmed previously to 37° C. and then fit into a variable height flow chamber. The flow chamber was mounted on the stage of an inverted phase contrast microscope (Diaphot, Nikon Inc., Melville, N.Y.) connected to a thermoplate (Tokai Hit Co., Ltd., Japan) set at 37° C. Cells were observed using a video camera (RS photometrics,) attached to the microscope and connected to a Macintosh G4 computer. RBC (3 ml) suspended at 0.2% (vol/vol) in HBSS with Ca^2+, Mg^2+ were infused into the flow chamber and allowed to adhere to the slide for 10 min without flow. Before exposure to flow, a minimum of three fields at each of seven different locations along a line oriented normal to future flow were examined for the total number of fluorescent cells. Fluid flow (HBSS with Ca^2+, Mg^2+) was then started using a calibrated syringe pump. After exposure to flow, the fields were again examined and the number of adherent cells counted. The fraction of adherent cells was presented as (number of cells attached after exposure to flow)/(cells present per field before flow). The wall shear stress was calculated as:
[formula] τw=wall shear stress (dyne/cm^2); Q=volumetric flow rate (cm^3/s); μ is media viscosity, w is the width of the flow channel, and H(x) is the height of the flow chamber as a function of position along the microscope slide. Several investigators have shown that blood flow in small vessels may be continuous, with shear stresses of 1-2 dynes/cm^2, or flow may be intermittent. Our data were obtained using both intermittent and continuous flow conditions.

Experiment [3] deals with human SS RBC adhesion to vascular endothelium and vaso-occlusion. Here is the method:
All animal experiments were carried out in accordance with protocols approved by the Duke University Animal Care and Use Committee. Female athymic homozygous nude mice (nu-/nu-) were between 8-12 weeks of age (Charles River Laboratories, Wilmington, Mass.).
General anesthesia was achieved by intra-peritoneal injection of 100 mg/kg of ketamine (Abbott Laboratory, Chicago, Ill.) and 10 mg/kg of xylazine (Bayer, Shawnee Mission, Kans.). A double-sided titanium frame window chamber was surgically implanted into the dorsal skin fold under sterile conditions using a laminar flow hood. Surgery involved carefully removing the epidermal and dermal layers of one side of a dorsal skin fold, exposing the blood vessels of the subcutaneous tissue adjacent to the striated muscles of the opposing skin fold, and then securing the two sides of the chamber to the skin using stainless steel screws and sutures. A glass window was placed in the chamber to cover the exposed tissue and secured with a snap ring. Subsequently, animals were kept at 32-34° C. until in vivo studies were performed 3 days post-surgery.
Murine recombinant TNF-α was dissolved in normal saline at a concentration of 0.1 mg/mL and mice bearing dorsal-skin window chamber implants were given a single intraperitoneal (IP) injection of 20 μg/kg TNF-α and control animals received same volume of normal saline. […] Thirty minutes later, labeled human SS RBCs (300 μl hematocrit (Hct) 50% in PBS with Ca^2+ and Mg^2+) were then infused. […] Animals were placed on the stage of an Axoplan microscope (Carl Zeiss, Thornwood, N.Y.); temperature was maintained at 37° C. using a thermostatically controlled heating pad. […] Microcirculatory events and cell adhesion were simultaneously recorded using a Trinitron Color video monitor (PVM-1353 MD, Sony) and JVC videocassette recorder (BR-53784, VCR King, Durham, N.C.) connected to a digital video camera C2400 (Hamamatsu Photonics K.K., Japan). Arterioles were distinguished from venules based on: 1) observation of divergent flow as opposed to convergent flow; 2) birefringent appearance of vessel walls using transillumination, which is characteristic of arteriolar vascular smooth muscle; and 3) relatively straight vessel trajectory without evidence of tortuosity. Cell adherence was quantitated by considering cells attached to the vessel walls and immobile for 1 minute. The percentage of the length of vessels with diameters≤25 μm or >25 μm, occupied by SS RBCs was quantified as: % venular length occupied by SS RBCs=length of vessel wall with adherent cells/total length of the vessel segments analyzed×100.

Experiment [4] relates to human SS RBC adhesion in inflamed venules and vaso-occlusion. The experiment is described as follows: Intravital microscopy in TNF-α-treated nude mice infused with human SS RBCs treated ex vivo with MEK inhibitor. The note with it: for percentage of venular length occupied by treated SS RBCs: compared to sham. The text has this:
For some in vivo adhesion studies, packed SS RBCs were fluorescently labeled with the dye Dil (Molecular Probes Inc., Eugene, Oreg.), following the manufacturer's instructions. […] Cell morphology was checked by microscopy.

The subject of experiment [5] is PMN adhesion to non-activated HUVECs. The experiment is described as follows: Adhesion to HUVECs of PMNs co-incubated with epinephrine-stimulated SS RBCs. Particulars: SS RBCs pre-incubated with inhibitor for 1 hour, then 20 nM epinephrine 1 min. It is filed as cell-based, human. Here is the method:
The cells were then washed prior to admixture with fluorescently-labeled native polymorphonuclear cells (PMNs) obtained from healthy donors at a RBC:PMN ratio of 10:1. After co-incubation for 30 minutes at 37° C., cells mixtures were assayed for their ability to adhere to non-activated HUVECs. […] Downregulation of RBC adhesion receptor activity by targeting ERK may not only decrease SS RBC adhesion to the endothelium but also reduce RBC-stimulated leukocyte activation.

Setting [6] is: 2 mg/kg U0126 in 0.4% DMSO i.v. 30 min prior to RBC infusion.
[7] abbreviates: SS RBCs treated ex vivo with 10 μM inhibitor for 1 hour, n=5.

Procedure for ERK1/2: Treated packed SS RBCs were lysed for 20 min at 4° C. with lysis buffer (10 mM EDTA, 20 mM Tris, 110 mM NaCl, pH 7.5) containing 2 mM PMSF, 1% Triton X-100, phosphatase inhibitor cocktail (Sigma) and protease inhibitor cocktail (Sigma). ERK1/2 was immunoprecipitated with anti-ERK1/2 antibody at 4° C., and immune complexes were obtained using protein A-agarose (Amersham Biosciences Corp., Piscataway, N.J.). ERK1/2 immunocomplex was examined for ERK1/2 activity using myelin basic protein (MBP) at 2 mg/ml (Millipore) as a substrate and ATP as a phosphate donor with equal protein amounts per assay condition. For the negative control, an equal volume of water was substituted for ERK1/2 substrate. […] The reaction mixture was incubated for 20 min at 30° C., followed by protein separation and immunoblotting using anti-phosphoMBP mAb (Millipore).

As to `CNC[C@H](O)c1ccc(O)c(O)c1` [epinephrine], the “intracellular cAMP” value in experiment [1] (epinephrine 1 min, about 50% of samples (n=19)) is recorded as “accumulation of high levels of intracellular cAMP”. Further, in experiment [1] (epinephrine 30 min), the cAMP levels result is “uniformly declined”. In the experiment on ERK1/2, the “MBP phosphorylation by immunoprecipitated ERK1/2, increase vs sham-treated cells” value stood at 2.1±0.3 fold.

`N#CC(=C(/N)Sc1ccccc1N)/C(C#N)=C(\N)Sc1ccccc1N` [U0126]: in experiment [2] (SS RBCs pre-treated with 10 μM U0126), the “SS RBCs adherent to TNF-α-activated HUVECs” value is recorded as 18±5%. Also, in experiment [2] (SS RBCs treated with MEK inhibitor (10 μM; RDEA119 1 and 10 μM)), the “effect on SS RBC adhesion to TNF-α-activated HUVECs” value is on record as “significantly reduced; also recorded: significantly inhibited”. Further, the vaso-occlusion entry is listed as “no apparent vaso-occulsion” in experiment [3] (0.2 mg/kg U0126 in 0.04% DMSO i.v. 30 minutes prior to RBC infusion) and “no apparent vaso-occlusion” in experiment [3] (setting [6]). Also, in experiment [3] (setting [6]), the “SS RBC adhesion to vascular endothelium” value is recorded as “very little adhesion”. Besides, the “percentage venular length occupied by SS RBCs” value is “did not significantly reduce” in experiment [3] (U0126 at 0.2 mg/kg, vessel diameter >25 μm); “significant decrease” in experiment [3] (U0126 at 0.2 and 2 mg/kg, vessels 25 μm in diameter, vs placebo). Further, in experiment [4] (setting [7]), the “human SS RBC adhesion in inflamed venules” value is “dramatically decreased”. Also, the vessel obstruction result in experiment [4] (setting [7]) is on record as “prevented vessel obstruction”. In addition, the “percentage of venular length occupied by treated SS RBCs” value in experiment [4] (vessels 25 μm in diameter) and in experiment [4] (vessels with a diameter >25 μm) was “significantly decreased” throughout. Further, the “ability of epinephrine-activated SS RBCs to promote neutrophil (PMN) adhesion to HUVECs” value in experiment [5] is recorded as “significantly decreased”.
